Measured values: patent publication US20190233884A1 (University of Southern California, priority 2016, published 2019)

Test system: patients with refractory metastatic colorectal cancer (mCRC)
Assay: PFS, OS and disease control in the training (evaluation) cohort of refractory mCRC patients receiving TAS-102 (n=52, Japan), by baseline characteristics, SNP genotype and toxicity
Type: in vivo, human
Settings: for PFS HR (95% CI) ‡ / OS HR (95% CI)‡: multivariable; for HR for OS / HR for PFS / Disease Control Rate PD / Disease Control Rate SD / Overall Survival Median, months (95% CI) / Progression-free Survival Median, months (95% CI) / Overall Survival HR (95% CI) multivariate / Overall Survival HR (95% CI) univariate / Progression-free Survival HR (95% CI) multivariate / Progression-free Survival HR (95% CI) univariate / OS / PFS: training cohort
Method: All patients underwent the treatment in salvage-line setting. […]
Genomic DNA was extracted from peripheral whole blood in patients of all cohorts using the QIAmp Kit (Qiagen, Valencia, Calif., USA) according to the manufacturer's protocol (www.qiagen.com). The candidate SNPs were genotyped using PCR-based direct DNA sequence analysis by ABI 3100A Capillary Genetic Analyzer and Sequencing Scanner v1.0 (Applied Biosystems). Amplification of extracted DNA was carried out using both forward and reverse primers for each gene polymorphism as shown in Table 1. […] The investigators analyzing SNPs were blinded to the clinical data of the study patients.
The primary endpoint in this study was progression-free survival (PFS), and the secondary endpoints were overall survival (OS) and disease control rate (DCR). PFS was calculated from the date of starting treatment to the first observation of disease progression or death from any cause. If a patient had no disease progression or death, PFS was censored at the date of last follow up. OS was calculated from the date of starting treatment until the date of death from any cause or the date of the last follow-up, at which point OS was censored. The disease control rate (DCR) was defined as the proportion of patients who achieved a stable disease (SD) or […] according to RECISTv1.1. Chi-square test was used to examine the difference in baseline patient characteristics among the three cohorts. Allelic distribution of all SNPs by ethnicity for deviation from Hardy-Weinberg equilibrium and the allelic frequencies of SNPs were tested using the Chi-square tests with one degree of freedom. The associations between candidate SNPs and disease control, and toxicities were examined using contingency tables and Fisher's exact test. The associations of SNPs with PFS and OS were analysed using Kaplan-Meier curves and the log-rank test. Because the true mode of inheritance of candidate SNPs was not established yet, a codominant or dominant genetic model if appropriate was considered.
All patients underwent the treatment in salvage-line setting. […] In all patients, adverse events were graded according to the Common Terminology Criteria for Adverse Events, version 4.0. […]
Genomic DNA was extracted from peripheral whole blood in patients of all cohorts using the QIAmp Kit (Qiagen, Valencia, Calif., USA) according to the manufacturer's protocol (www.qiagen.com). The candidate SNPs were tested using PCR-based direct DNA sequence analysis by ABI 3100A Capillary Genetic Analyzer and Sequencing Scanner v1.0 (Applied Biosystems). […] The investigators analyzing SNPs were blinded to the clinical data.
The primary endpoint in this study was progression-free survival (PFS), and the secondary endpoints were overall survival (OS) and disease control rate (DCR).

[1] = p21 rs1801270 Any C vs A/A, univariate
[2] = p21 rs1801270 C/C vs A/A, univariate
[3] = p53 rs1042522 Any G vs C/C, univariate
[4] = p53 rs1042522 C/G vs C/C, univariate
[5] = p53 rs1042522 G/G vs C/C, univariate
[6] = MATE1/OCT2 combination Good vs Poor, univariate
[7] = MATE1/OCT2 combination, multivariable adjusted for liver metastases and adjuvant history
[8] = MATE1 rs2289669/OCT2 rs316019 combination, Good category
[9] = MATE1 rs2289669/OCT2 rs316019 combination, Poor category
[10] = MATE1 rs2289669 G/A vs G/G, univariate
[11] = OCT2 rs316019 C/A and A/A combined vs C/C

## Trifluridine/tipiracil [TAS-102]
p21 rs1801270 Any C vs A/A
  PFS HR (95% CI) ‡: 0.74 (0.37, 1.49)
[1]
  OS HR (95% CI)†: 0.64 (0.27, 1.56)
  PFS HR (95% CI) †: 0.88 (0.44, 1.74)
p21 rs1801270 C/C
  OS median, months (95% CI): 6.3 (3.1, 10.7) months
  PFS median, months (95% CI): 2.7 (1.6, 4.6) months
p21 rs1801270 C/C vs A/A
  OS HR (95% CI)‡: 0.72 (0.24, 2.15)
  PFS HR (95% CI) ‡: 0.77 (0.33, 1.79)
[2]
  OS HR (95% CI)†: 0.85 (0.29, 2.48)
  PFS HR (95% CI) †: 0.97 (0.43, 2.17)
p53 rs1042522 Any G
  OS median, months (95% CI): 7.2 (5.4, 15.6+) months
  PFS median, months (95% CI): 3.0 (2.1, 3.4) months
p53 rs1042522 Any G vs C/C
  OS HR (95% CI)‡: 1.28 (0.52, 3.19)
  PFS HR (95% CI) ‡: 1.10 (0.58, 2.09)
[3]
  OS HR (95% CI)†: 1.15 (0.47, 2.81)
  PFS HR (95% CI) †: 0.89 (0.48, 1.65)
p53 rs1042522 C/C
  OS median, months (95% CI): 8.7 (5.3, 14.8+) months
  PFS median, months (95% CI): 2.5 (1.6, 4.4) months
p53 rs1042522 C/G
  OS median, months (95% CI): 6.3 (4.4, 12.4+) months
  PFS median, months (95% CI): 3.0 (1.9, 3.5) months
p53 rs1042522 C/G vs C/C
  OS HR (95% CI)‡: 1.61 (0.64, 4.06)
  PFS HR (95% CI) ‡: 1.12 (0.57, 2.21)
[4]
  OS HR (95% CI)†: 1.35 (0.55, 3.35)
  PFS HR (95% CI) †: 0.86 (0.45, 1.65)
p53 rs1042522 G/G
  PFS median, months (95% CI): 2.3 (0.7, 4.6+) months
p53 rs1042522 G/G vs C/C
  OS HR (95% CI)‡: 0.38 (0.05, 3.11)
  PFS HR (95% CI) ‡: 1.04 (0.38, 2.86)
[5]
  OS HR (95% CI)†: 0.41 (0.05, 3.29)
  PFS HR (95% CI) †: 1.02 (0.37, 2.77)
[6]
  HR for OS: 0.39
  HR for PFS: 0.44
[7]
  HR for OS: 0.41
  HR for PFS: 0.45
MATE1_OCT019 good
  Disease Control Rate PD: 20 (59%)
  Disease Control Rate SD: 14 (41%)
  Overall Survival Median, months (95% CI): 8.3 (6.3, 15.6) months
  Progression-free Survival Median, months (95% CI): 3.4 (2.1, 4.1) months
MATE1_OCT019 good vs poor
  Overall Survival HR (95% CI) multivariate: 0.41 (0.16, 1.04)
  Overall Survival HR (95% CI) univariate: 0.39 (0.15, 0.98)
  Progression-free Survival HR (95% CI) multivariate: 0.45 (0.23, 0.88)
  Progression-free Survival HR (95% CI) univariate: 0.44 (0.22, 0.85)
MATE1_OCT019 poor
  Disease Control Rate PD: 11 (92%)
  Disease Control Rate SD: 1 (8%)
  Overall Survival Median, months (95% CI): 4.9 (2.8, 10.7) months
  Progression-free Survival Median, months (95% CI): 2.3 (1.2, 2.9) months
[8]
  OS: 8.3 months
  PFS: 3.4 months
[9]
  OS: 4.9 months
  PFS: 2.3 months
MATE1 rs2289669 A/A
  Disease Control Rate PD: 8 (80%)
  Disease Control Rate SD: 2 (20%)
  Overall Survival Median, months (95% CI): 4.9 (2.8, 6.5+) months
  Progression-free Survival Median, months (95% CI): 2.3 (1.2, 3.3) months
MATE1 rs2289669 A/A vs G/G
  Overall Survival HR (95% CI) multivariate: 1.98 (0.56, 6.99)
  Overall Survival HR (95% CI) univariate: 2.40 (0.59, 8.37)
  Progression-free Survival HR (95% CI) multivariate: 0.92 (0.38, 2.24)
  Progression-free Survival HR (95% CI) univariate: 0.94 (0.40, 2.18)
MATE1 rs2289669 Any A
  Disease Control Rate PD: 22 (61%)
  Disease Control Rate SD: 14 (39%)
  Overall Survival Median, months (95% CI): 8.3 (5.3, 15.6+) months
  Progression-free Survival Median, months (95% CI): 3.0 (2.1, 3.7) months
MATE1 rs2289669 Any A vs G/G
  Overall Survival HR (95% CI) multivariate: 0.93 (0.33, 2.59)
  Overall Survival HR (95% CI) univariate: 1.03 (0.37, 2.83)
  Progression-free Survival HR (95% CI) multivariate: 0.53 (0.25, 1.13)
  Progression-free Survival HR (95% CI) univariate: 0.56 (0.28, 1.13)
MATE1 rs2289669 G/A
  Disease Control Rate PD: 14 (54%)
  Disease Control Rate SD: 12 (45%)
  OS: 12.4 months
  Overall Survival Median, months (95% CI): 12.4 (5.7, 15.6+) months
  PFS: 3.4 months
  Progression-free Survival Median, months (95% CI): 3.4 (2.1, 4.4) months
MATE1 rs2289669 G/A vs G/G
  Overall Survival HR (95% CI) multivariate: 0.59 (0.23, 2.11)
  Overall Survival HR (95% CI) univariate: 0.75 (0.26, 2.28)
  Progression-free Survival HR (95% CI) multivariate: 0.41 (0.18, 0.94)
  Progression-free Survival HR (95% CI) univariate: 0.44 (0.20, 0.93)
[10]
  HR for OS: 0.76
  HR for PFS: 0.44
MATE1 rs2289669 G/A, multivariate adjusted for liver metastases and adjuvant history
  HR for PFS: 0.41
MATE1 rs2289669 G/G
  Disease Control Rate PD: 9 (90%)
  Disease Control Rate SD: 1 (10%)
  OS: 8.1 months
  Overall Survival Median, months (95% CI): 8.1 (5.4, 10.7+) months
  PFS: 2.0 months
  Progression-free Survival Median, months (95% CI): 2.0 (1.4, 3.4) months
OCT2 rs316019 A/A
  Disease Control Rate PD: 1 (25%)
  Disease Control Rate SD: 3 (75%)
OCT2 rs316019 C/A
  Disease Control Rate PD: 6 (67%)
  Disease Control Rate SD: 3 (33%)
OCT2 rs316019 C/A and A/A combined
  Progression-free Survival Median, months (95% CI): 3.0 (1.2, 6.0+) months
[11]
  Overall Survival HR (95% CI) multivariate: 1.74 (0.55, 5.51)
  Overall Survival HR (95% CI) univariate: 1.04 (0.38, 2.89)
  Progression-free Survival HR (95% CI) multivariate: 1.32 (0.58, 3.02)
